Data set [1] relates to isolated rat mesenteric arteries. The data set is described as follows: Pressure myography with isolated rat mesenteric arteries. The conditions noted are these: 10 μM, 15 min pre-exposure, vs vehicle.
The next data set deals with normal rats. The data set is described as follows: Effects on blood pressure in normal rats. The class given is in vivo, rat. On the procedure:
In vivo animal experiments. All procedures were performed in accordance with the National Institutes of Health Guidelines for Use of Laboratory Animals and were approved by the University of South Florida Institutional Animal Care and Use Committeee (IS00008139). Male Sprague-Dawley rats (300-400 g, Envigo, Indianapolis, IN, USA). were anesthetized with 1.7% isoflurane via nose-cone inhalation with the SomnoSuite anesthesia system (Kent Scientific, Torrington, CT, USA). […] The left femoral artery was isolated and cannulated with a 24-gauge peripheral intravenous catheter to allow for blood withdrawal, hemodynamic monitoring, drug administration, and fluid resuscitation. Hemodynamics were continuously monitored with the SurgivetV6400 blood pressure monitor (Med-Electronics, Beltsville, MD, USA), and blood pressures and heart rate were recorded at 1-10 min intervals. All animals were observed over a 10 min period to ensure hemodynamic stability before start of the experiments. All experiments were performed randomized in alternating order. To test the effects of INCB3284 in normal rats, animals received repetitive injections of 1 mL of Lactated Ringer's solution (LR, vehicle) in 10 min intervals (n=3) or increasing doses of the drug (0.55, 0.82, 1.4 and 2.75 μmol/kg INCB3284) in 1 mL LR in 10 min intervals (n=3).

In data set [2] the test system is hemorrhagic shock. The data set is described as follows: Example 2 Series 2: 60 min hemorrhagic shock, single dose, fluid resuscitation until t=300 min. The data set is classed as in vivo, rat. On the procedure: (§1) The hemorrhagic shock models were performed as described previously, with slight modifications (DeSantis A J, et al., The Chemokine (C-C Motif) Receptor 2 Antagonist INCB3284 Reduces Fluid Requirements and Protects From Hemodynamic Decompensation During Resuscitation From Hemorrhagic Shock. Crit Care Explor 2022;4(5):e0701; Bach H H, et al., Chemokine (C-X-C motif) receptor 4 and atypical chemokine receptor 3 regulate vascular alpha(1)-adrenergic receptor function. Mol Med 2014; 20:435-47; Nassoiy S P, et al., Effects of the Kv7 voltage activated potassium channel inhibitor linopirdine in rat models of hemorrhagic shock. Clin Exp Pharmacol Physiol 2018. doi: 10.1111/1440-1681.12958. PubMed PMID: 29702725; Bach H H, et al., Proteasome inhibition prolongs survival during lethal hemorrhagic shock in rats. J Trauma Acute Care Surg 2013; 74(2):499-507). In brief, anesthesia induction was performed with the animal and isoflurane-soaked gauze placed in a bell jar. After anesthesia induction, the animals were transferred to the operative field and anesthesia was maintained with 2.7% isoflurane administered via nose-cone inhalation with the SomnoSuite small animal anesthesia system (Kent Scientific Corporation, Torrington, CT, USA). […] Using a direct cut-down technique, the left femoral artery was isolated and cannulated with a 24-gauge peripheral intravenous catheter to allow for blood withdrawal, hemodynamic monitoring, drug administration, and fluid resuscitation. After catheter placement, isoflurane was decreased to 1.5%. Hemodynamics were continuously monitored with the Surgivet invasive blood pressure monitor (Med-Electronics, Beltsville, MD, USA). Blood pressures were recorded at 1-5 min intervals during the hemorrhage and resuscitation periods. Four subsequent series of experiments were performed. All experiments in each series were performed in alternating order. In all experiments animals were continuously monitored and remained under general anesthesia until euthanasia or death, as defined by asystole or loss of pulse pressure.
(§2) Series 2: Rats were hemorrhaged to a MAP of less than or equal to 30 mmHg for a period of 60 min, followed by fluid resuscitation until t=300 min as in Series 1. At the end of the hemorrhagic shock period (t=60 min), animals were injected with 1 mL of normal saline (NS) (n=6), 5 μmol/kg (n=6) INCB3284 in 1 mL NS or 1.1 μmol/kg SB 328437 (n=6) in 1 mL NS at t=60 min. At t=0 min, 60 min, 120 min, 180 min, 240 min and 300 min, blood samples (0.3 ml) were obtained and used for arterial blood gas analyses and measurements of routine laboratory parameters. At t=300 min, surviving animals were euthanized (5% isoflurane inhalation, bilateral pneumothorax).
(§3) Arterial blood gases and routine laboratory parameters. Arterial blood gases, electrolytes, creatinine, lactate, hematocrit and hemoglobin were analyzed using the Element point of care veterinary blood gas, electrolyte and critical care analyzer (Cuattro Veterinary USA, Loveland, CO, USA).

Data set [3] deals with hemorrhagic shock. Put plainly: Example 2 Series 3: 60 min hemorrhagic shock, redosing, fluid resuscitation until t=300 min. The class given is in vivo, rat. The settings on record: 5 μmol/kg at t=60 min and t=200 min. As for the experimental part:
as §1
as §2, with “3:” for “2:”, “2.” for “1.”, “min) and at t=200 min,” for “min),”, “NS (n=7) or with” for “normal saline (NS) (n=6),”, “μmol/kg” for “μmol/kg (n=6)”, “(n=7).” for “or 1.1 μmol/kg SB 328437 (n=6) in 1 mL NS at t=60 min.”
as §3

A further data set deals with severe hemorrhagic shock. Put plainly: Example 2 Series 4: lethal hemorrhage without fluid resuscitation. The class given is in vivo, rat. The settings on record: 5 μmol/kg INCB3284 or 1 μmol/kg SB328437 after 40% TBV hemorrhage. On the procedure: as §1
Series 4: The purpose of these experiments was to determine whether treatment with the chemokine receptor antagonists increases shock tolerance, blood pressure and survival time without additional fluid resuscitation. As such, death is an intentional endpoint. Earlier endpoints are unable to answer these questions and alternatives are not available. Rats were hemorrhaged 40% total blood volume (TBV) within 10 min. At t=15 min, animals were injected with vehicle (1 mL NS, n=3), 5 μmol/kg INCB3284 in 1 mL NS (n=5) or […] SB 328437 in 1 mL NS (n=5). Animals were then hemorrhaged 2% TBV every 5 minutes until death.

The conditions of data set [4]: rats; cited from earlier work.
Setting [5] is: increasing doses 0.55, 0.82, 1.4 and 2.75 μmol/kg in 1 mL LR, 10 min intervals.

As to `COc1ccc([C@]2(O)CC[C@@H](N3CC[C@@H](NC(=O)CNC(=O)c4cccc(C(F)(F)F)c4)C3)CC2)cn1` [INCB3284], in data set [1], the artery diameter result was “did not alter artery diameter” and the phenylephrine-induced vasoconstriction result is given as “did not alter artery diameter or affect phenylephrine-induced vasoconstriction”. In the data set on normal rats (setting [5]), the “MAP during the observation period” value was “remained constant” and the “acute effects on blood pressure” value is reported as “did not show acute effects on blood pressure”. The “slope of the MAP linear regression line” value with normal rats (increasing doses 0.55-2.75 μmol/kg, not significantly different from zero (p=0.43)) is −0.011 mmHg/min. For the same compound, the median survival time result in the data set with hemorrhagic shock [2] (1.1 μmol/kg SB328437 or 5 μmol/kg INCB3284 at t=60 min) is listed as “undefined”. Besides, in the data set on hemorrhagic shock [2] (1.1 μmol/kg SB328437 or 5 μmol/kg INCB3284 at t=60 min, until t=300 min, n=6), the “animals that survived the resuscitation period” value was “all”. For the same compound, the “reduction of fluid resuscitation requirements to achieve the target MAP” value in the data set with hemorrhagic shock [2] (5 μmol/kg at t=60 min, until t=220 min, p<0.05 vs. vehicle) is reported as 65%. Moreover, the “steep increase in fluid requirements” value in the data set with hemorrhagic shock [3] is reported as “prevented”. Also, the “reduction of total fluid requirements” value with hemorrhagic shock [3] (at t=300 min, vs vehicle) is given as 75%. Further, in the data set on hemorrhagic shock [3] (at t=300 min, p<0.05 vs. vehicle), the total fluid requirements is 33 ± 16 mL/kg. Also, in the data set with hemorrhagic shock [3] (p<0.05 vs. vehicle), the median survival time entry was “undefined” and the mortality result is listed as “zero”. In addition, the “MAP during subsequent 2% TBV hemorrhages in 5 min intervals” value in the data set with severe hemorrhagic shock (no fluid resuscitation) is “indistinguishable among groups”. This compound gave a median survival time in the data set on severe hemorrhagic shock (not significantly different between groups) of 80 min. Also, in data set [4], the half-live is reported as 168 min.

Source of the values: patent US20240277684A1, “BLOCKADE OF CHEMOKINE (C-C MOTIF) RECEPTOR 2 DURING FLUID RESUSCITATION” (University of South Florida, priority 2022, published 2024).
